Laboratory results as given in US20250114460A1, “NOVEL PLK1 DEGRADATION INDUCING COMPOUND” (UPPTHERA, INC., priority 2021, published 2025).
Read-outs that look alike come from different tables or passages of the source.

Columns and labels:
Format in all cases: cell-based
PLK1 = target: T1, PLK1 (Homo sapiens, UniProt P53350); experiment: Luciferase assay for PLK1 in HeLa LgBit (Plk1-HiBit KI) cell line; details: 300 nM compound, luminescence after 9 hours
T1 construct: endogenous in cells; host or cells: HeLa LgBit (Plk1-HiBit KI): HeLa stably expressing LgBit, with a CRISPR/Cas9 knock-in of HiBit at the endogenous PLK1 locus
How it was run: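 Luminescence, followed in real time after adding compound at 300 nM and Endurazine substrate, is reported relative to DMSO-treated wells. Cells are a HeLa LgBit line with a Plk1-HiBit knock-in, synchronized by 2 mM thymidine for 24 h, released, and cultured 18 h before treatment.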

NCI-H526 cell line = experiment: Cell viability assay for H526 cell (EZ-Cytox); details: Homo sapiens, NCI-H526, 120 h; H526 cells, 5 days, 3000 nM to 0.46 nM
How it was run: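 Read-out was EZ-Cytox colorimetric absorbance at 450 nm, taken after brief plate shaking, with IC50 derived. Before reading, H526 cells had been cultured with test compound for 5 days.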

MRC-5 cell line = experiment: Cell viability assay for MRC-5 cell line (EZ-Cytox); details: Homo sapiens, MRC5, 120 h, read-out: Activity: IC50 value of Exemplary Compound to MRC-5 cell line
Protocol: 4. Cell Viability Assay for MRC-5 Cell Line
(1) Culture of MRC-5 Cell Line
Passage of cultured cells was maintained within P15.
(2) Treatment of Compounds of the Present Invention
Then, it was cultured in 37° C.
(3) Cytotoxicity Experiment
CO2 incubator for 4 hours.

[1] = MRC-5 normal cell line, 5 days, 10000 nM to 1.52 nM, N.D. = no cytotoxicity until 10 μM

T1 sequence (P53350 whole entry): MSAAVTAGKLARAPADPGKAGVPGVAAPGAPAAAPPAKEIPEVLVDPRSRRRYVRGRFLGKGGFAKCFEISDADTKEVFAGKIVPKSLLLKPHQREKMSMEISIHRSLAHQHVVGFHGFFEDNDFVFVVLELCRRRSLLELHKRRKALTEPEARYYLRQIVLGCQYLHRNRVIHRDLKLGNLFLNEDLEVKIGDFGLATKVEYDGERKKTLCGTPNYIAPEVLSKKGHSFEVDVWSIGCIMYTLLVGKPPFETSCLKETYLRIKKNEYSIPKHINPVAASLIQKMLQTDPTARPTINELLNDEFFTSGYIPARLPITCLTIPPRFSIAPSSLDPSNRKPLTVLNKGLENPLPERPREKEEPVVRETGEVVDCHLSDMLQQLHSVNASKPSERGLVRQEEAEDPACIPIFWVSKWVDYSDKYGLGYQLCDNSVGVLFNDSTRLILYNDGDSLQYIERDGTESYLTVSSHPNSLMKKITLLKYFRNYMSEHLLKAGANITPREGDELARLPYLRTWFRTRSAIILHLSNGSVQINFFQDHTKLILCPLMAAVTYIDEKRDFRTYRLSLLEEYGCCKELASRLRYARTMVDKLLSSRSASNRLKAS

Row | Activity: ratio of the luminescense value of each Exemplary Compound treatment group to DMSO treatment group (PLK1) | SMILES | IC50 (NCI-H526 cell line) | IC50 (MRC-5 cell line; [1]) | IC50 (MRC-5 cell line)
1 | +++ (+++: <0.3) | COc1cc(C(=O)NC2CCN(C(=O)CCN3CCN(c4cccc5c4C(=O)N(C4CCC(=O)NC4=O)C5=O)CC3)CC2)c(Cl)cc1Nc1ncc2c(n1)N(C1CCCC1)CC(F)(F)C(=O)N2C (stereo not drawn) [Compound 78, 2-chloro-4-((9-cyclopentyl-7,7-difluoro-5-methyl-6-oxo-6,7,8,9-tetrahydro-5H-pyrimido[4,5-b][1,4]diazepin-2-yl)amino)-N-(1-(3-(4-(2-(2,6-dioxopiperidin-3-yl)-1,3-dioxoisoindolin-4-yl)piperazin-1-yl)propanoyl)piperidin-4-yl)-5-methoxybenzamide] | < 0.1 µM | > 10 µM | 
2 | ++ (++<0.6) | COc1cc2c(cc1Nc1ncc3c(n1)N(C1CCCC1)CC(F)(F)C(=O)N3C)CCN(C1CCN(C(=O)CCN3CCN(c4cccc5c4C(=O)N(C4CCC(=O)NC4=O)C5=O)CC3)CC1)C2=O (stereo not drawn) [Compound 102, 4-(4-(3-(4-(6-((9-cyclopentyl-7,7-difluoro-5-methyl-6-oxo-6,7,8,9-tetrahydro-5H-pyrimido[4,5-b][1,4]diazepin-2-yl)amino)-7-methoxy-1-oxo-3,4-dihydroisoquinolin-2(1H)-yl)piperidin-1-yl)-3-oxopropyl)piperazin-1-yl)-2-(2,6-dioxopiperidin-3-yl)isoindoline-1,3-dione] | < 0.4 µM | 14.4 µM | 
3 | ++ (++<0.6) | COc1cc(C(=O)NN2CCC(N3CC4(CCN(c5cccc6c5C(=O)N(C5CCC(=O)NC5=O)C6=O)CC4)C3)CC2)c(F)cc1Nc1ncc2c(n1)N(C(C)C)CC(F)(F)C(=O)N2C (stereo not drawn) [Compound 210, 4-((7,7-difluoro-9-isopropyl-5-methyl-6-oxo-6,7,8,9-tetrahydro-5H-pyrimido[4,5-b][1,4]diazepin-2-yl)amino)-N-(4-(7-(2-(2,6-dioxopiperidin-3-yl)-1,3-dioxoisoindolin-4-yl)-2,7-diazaspiro[3.5]nonan-2-yl)piperidin-1-yl)-2-fluoro-5-methoxybenzamide] | < 0.05 µM | 18.2 µM | 
4 | ++ (++<0.6) | COc1cc(C(=O)NC2CCN(C(=O)CC3CN(c4ccc5c(c4)C(=O)N(C4CCC(=O)NC4=O)C5=O)C3)CC2)c(F)cc1Nc1ncc2c(n1)N(C1CCCC1)CC(F)(F)C(=O)N2C (stereo not drawn) [Compound 205, 4-((9-cyclopentyl-7,7-difluoro-5-methyl-6-oxo-6,7,8,9-tetrahydro-5H-pyrimido[4,5-b][1,4]diazepin-2-yl)amino)-N-(1-(2-(1-(2-(2,6-dioxopiperidin-3-yl)-1,3-dioxoisoindolin-5-yl)azetidin-3-yl)acetyl)piperidin-4-yl)-2-fluoro-5-methoxybenzamide] | < 0.05 µM | > 10 µM | 
5 | ++ (++<0.6) | COc1cc(C(=O)N[C@H]2CC[C@H](N(C)CCN3CCN(c4ccc5c(c4)C(=O)N(C4CCC(=O)NC4=O)C5=O)CC3)CC2)ccc1Nc1ncc2c(n1)N(C(C)C)CC(F)(F)C(=O)N2C (stereo partly drawn) [Compound 156, 4-((7,7-difluoro-9-isopropyl-5-methyl-6-oxo-6,7,8,9-tetrahydro-5H-pyrimido[4,5-b][1,4]diazepin-2-yl)amino)-N-((1r,4r)-4-((2-(4-(2-(2,6-dioxopiperidin-3-yl)-1,3-dioxoisoindolin-5-yl)piperazin-1-yl)ethyl)(methyl)amino)cyclohexyl)-3-methoxybenzamide] | < 0.05 µM | > 10 µM | 
6 | ++ (++<0.6) | COc1cc(C(=O)N[C@H]2CC[C@H](N3CCN(c4cccc5c4C(=O)N(C4CCC(=O)NC4=O)C5=O)CC3)CC2)ccc1Nc1ncc2c(n1)N(C1CCCC1)CC(F)(F)C(=O)N2C (stereo partly drawn) [Compound 131, 4-((9-cyclopentyl-7,7-difluoro-5-methyl-6-oxo-6,7,8,9-tetrahydro-5H-pyrimido[4,5-b][1,4]diazepin-2-yl)amino)-N-((1r,4r)-4-(4-(2-(2,6-dioxopiperidin-3-yl)-1,3-dioxoisoindolin-4-yl)piperazin-1-yl)cyclohexyl)-3-methoxybenzamide] | < 0.05 µM | > 10 µM | 
7 | ++ (++<0.6) | COc1cc(C(=O)N[C@H]2CC[C@H](N3CCN(CCC4CCN(c5cccc6c5C(=O)N(C5CCC(=O)NC5=O)C6=O)CC4)CC3)CC2)c(F)cc1Nc1ncc2c(n1)N(C1CCCC1)CC(F)(F)C(=O)N2C (stereo partly drawn) [Compound 114, 4-((9-cyclopentyl-7,7-difluoro-5-methyl-6-oxo-6,7,8,9-tetrahydro-5H-pyrimido[4,5-b][1,4]diazepin-2-yl)amino)-N-((1r,4r)-4-(4-(2-(1-(2-(2,6-dioxopiperidin-3-yl)-1,3-dioxoisoindolin-4-yl)piperidin-4-yl)ethyl)piperazin-1-yl)cyclohexyl)-2-fluoro-5-methoxybenzamide] | < 0.2 µM | > 10 µM | 
8 | ++ (++<0.6) | COc1cc(C(=O)NC2CCN(C(=O)CCN3CCN(c4cccc5c4CN(C4CCC(=O)NC4=O)C5=O)CC3)CC2)ccc1Nc1ncc2c(n1)N(C(C)C)CC(F)(F)C(=O)N2C (stereo not drawn) [Compound 133, 4-((7,7-difluoro-9-isopropyl-5-methyl-6-oxo-6,7,8,9-tetrahydro-5H-pyrimido[4,5-b][1,4]diazepin-2-yl)amino)-N-(1-(3-(4-(2-(2,6-dioxopiperidin-3-yl)-1-oxoisoindolin-4-yl)piperazin-1-yl)propanoyl)piperidin-4-yl)-3-methoxybenzamide] | < 0.05 µM | > 10 µM | 
9 | ++ (++<0.6) | COc1cc(C(=O)NN2CCC(N3CC4(CCN(c5cccc6c5C(=O)N(C5CCC(=O)NC5=O)C6=O)CC4)C3)CC2)c(F)cc1Nc1ncc2c(n1)N(C1CCCC1)CC(F)(F)C(=O)N2C (stereo not drawn) [Compound 209, 4-((9-cyclopentyl-7,7-difluoro-5-methyl-6-oxo-6,7,8,9-tetrahydro-5H-pyrimido[4,5-b][1,4]diazepin-2-yl)amino)-N-(4-(7-(2-(2,6-dioxopiperidin-3-yl)-1,3-dioxoisoindolin-4-yl)-2,7-diazaspiro[3.5]nonan-2-yl)piperidin-1-yl)-2-fluoro-5-methoxybenzamide] | < 0.05 µM | 5.31 µM | 
10 | ++ (++<0.6) | COc1cc(C(=O)NN2CCC(CN3CCN(c4cccc5c4C(=O)N(C4CCC(=O)NC4=O)C5=O)CC3)CC2)ccc1Nc1ncc2c(n1)N(C1CCCC1)CC(F)(F)C(=O)N2C (stereo not drawn) [Compound 124, 4-((9-cyclopentyl-7,7-difluoro-5-methyl-6-oxo-6,7,8,9-tetrahydro-5H-pyrimido[4,5-b][1,4]diazepin-2-yl)amino)-N-(4-((4-(2-(2,6-dioxopiperidin-3-yl)-1,3-dioxoisoindolin-4-yl)piperazin-1-yl)methyl)piperidin-1-yl)-3-methoxybenzamide] | < 0.03 µM | > 10 µM | 
11 | ++ (++<0.6) | COc1cc(C(=O)NC2CCN(C[C@H]3CCN(c4ccc5c(c4)C(=O)N(C4CCC(=O)NC4=O)C5=O)C3)CC2)ccc1Nc1ncc2c(n1)N(C1CCCC1)CC(F)(F)C(=O)N2C (stereo partly drawn) [Compound 49, 4-((9-cyclopentyl-7,7-difluoro-5-methyl-6-oxo-6,7,8,9-tetrahydro-5H-pyrimido[4,5-b][1,4]diazepin-2-yl)amino)-N-(1-(((3R)-1-(2-(2,6-dioxopiperidin-3-yl)-1,3-dioxoisoindolin-5-yl)pyrrolidin-3-yl)methyl)piperidin-4-yl)-3-methoxybenzamide] | < 0.05 µM | > 10 µM | 

Row | SMILES | Activity: ratio of the luminescense value of each Exemplary Compound treatment group to DMSO treatment group (PLK1) | IC50 (NCI-H526 cell line) | IC50 (MRC-5 cell line; [1]) | IC50 (MRC-5 cell line)
12 | COc1cc(C(=O)NC2CCCN(CCN3CCN(c4cccc5c4C(=O)N(C4CCC(=O)NC4=O)C5=O)CC3)C2)ccc1Nc1ncc2c(n1)N(C1CCCC1)CC(F)(F)C(=O)N2C (stereo not drawn) [Compound 143, 4-((9-cyclopentyl-7,7-difluoro-5-methyl-6-oxo-6,7,8,9-tetrahydro-5H-pyrimido[4,5-b][1,4]diazepin-2-yl)amino)-N-(1-(2-(4-(2-(2,6-dioxopiperidin-3-yl)-1,3-dioxoisoindolin-4-yl)piperazin-1-yl)ethyl)piperidin-3-yl)-3-methoxybenzamide] | ++ (++<0.6) | < 0.1 µM |  | > 10 µM
13 | COc1cc(C(=O)NC2CCCN(CCCN3CCN(c4cccc5c4C(=O)N(C4CCC(=O)NC4=O)C5=O)CC3)C2)ccc1Nc1ncc2c(n1)N(C1CCCC1)CC(F)(F)C(=O)N2C (stereo not drawn) [Compound 144, 4-((9-cyclopentyl-7,7-difluoro-5-methyl-6-oxo-6,7,8,9-tetrahydro-5H-pyrimido[4,5-b][1,4]diazepin-2-yl)amino)-N-(1-(3-(4-(2-(2,6-dioxopiperidin-3-yl)-1,3-dioxoisoindolin-4-yl)piperazin-1-yl)propyl)piperidin-3-yl)-3-methoxybenzamide] | ++ (++<0.6) | < 0.05 µM |  | 4.08 µM
